Results from patent US4521413A, “Cephem compounds” (Fujisawa Pharmaceutical Co., Ltd., priority 1981, dated 1985).
Values after ≈ are worked out from the molar mass of the structure shown.

How the values were obtained:
B. subtilis ATCC 6633 = assay: Minimal inhibitory concentration (MIC), agar streak test on heart infusion agar; format: cell-based; conditions: Bacillus subtilis, ATCC6633, 37° C. for 20 hours, 10^8 viable cells per ml
Procedure: (§1) One loopful of an overnight culture of each test strain in Trypticase-soy broth (10^8 viable cells per ml.) was streaked on heart infusion agar (HI-agar) containing graded concentrations of antibiotics, and the minimal inhibitory concentration (MIC) was expressed in terms of μg/ml after incubation at 37° C. for 20 hours.

S. marcescens 35 = assay: as above; format: cell-based; conditions: Serratia marcescens, 37° C. for 20 hours, 10^8 viable cells per ml
Procedure: as §1

MIC (B. subtilis ATCC 6633)	MIC (S. marcescens 35)	Structure (SMILES)
0.78 µg/mL (≈ 1.5 µM)	1.56 µg/mL (≈ 3 µM)	CCO/N=C(\C(=O)NC1C(=O)N2C(C(=O)[O-])=C(C[n+]3cccc(OC)c3)CSC12)c1nsc(N)n1 (stereo not drawn) [Test Compound (3), 7-[2-Ethoxyimino-2-(5-amino-1,2,4-thiadiazol-3-yl)acetamido]-3-(3-methoxy-1-pyridiniomethyl)-3-cephem-4-carboxylate (syn isomer)]
0.39 µg/mL (≈ 0.732 µM)	1.56 µg/mL (≈ 2.93 µM)	CCO/N=C(\C(=O)NC1C(=O)N2C(C(=O)[O-])=C(C[n+]3cccc(N(C)C)c3)CSC12)c1nsc(N)n1 (stereo not drawn) [Test Compound (2), 7-[2-Ethoxyimino-2-(5-amino-1,2,4-thiadiazol-3-yl)acetamido]-3-(3-dimethylamino-1-pyridiniomethyl)-3-cephem-4-carboxylate (syn isomer)]
0.78 µg/mL (≈ 1.5 µM)	1.56 µg/mL (≈ 3.01 µM)	CCO/N=C(\C(=O)NC1C(=O)N2C(C(=O)[O-])=C(C[n+]3cccc(NC)c3)CSC12)c1nsc(N)n1 (stereo not drawn) [Test Compound (1), 7-[2-Ethoxyimino-2-(5-amino-1,2,4,-thiadiazol-3-yl)acetamido]-3-(3-methylamino-1-pyridiniomethyl)-3-cephem-4-carboxylate (syn isomer)]
